This is an account of results in patent US8815840B2, “Carbazole and carboline kinase inhibitors” (Bristol-Myers Squibb Company, priority 2008, dated 2014).

This assay addresses JAK2 (Homo sapiens (Human), UniProt O60674). Briefly: JAK2 Tyrosine Kinase Assay. In kind it is biochemical. To be noted: ATP 30 μM; JAK2 1 nM; 60 min at room temperature. As for the experimental part: JAK2 Tyrosine Kinase Assay
The assays were performed in V-bottom 384-well plates. […] The reaction was initiated by the combination of JAK2 with substrates and test compounds. The reaction was incubated at room temperature for 60 min. and terminated by adding 45 μl of 35 mM EDTA to each sample. The reaction mixture was analyzed on the Caliper LABCHIP® 3000 by electrophoretic separation of the fluorescent substrate and phosphorylated product. […] Compounds were dissolved at 10 mM in dimethylsulfoxide (DMSO) and evaluated at eleven concentrations, each in duplicate. IC50 values were derived by non-linear regression analysis

Where a name gives a salt, the structure may show the parent alone.

JAK2, sequence (O60674 whole entry): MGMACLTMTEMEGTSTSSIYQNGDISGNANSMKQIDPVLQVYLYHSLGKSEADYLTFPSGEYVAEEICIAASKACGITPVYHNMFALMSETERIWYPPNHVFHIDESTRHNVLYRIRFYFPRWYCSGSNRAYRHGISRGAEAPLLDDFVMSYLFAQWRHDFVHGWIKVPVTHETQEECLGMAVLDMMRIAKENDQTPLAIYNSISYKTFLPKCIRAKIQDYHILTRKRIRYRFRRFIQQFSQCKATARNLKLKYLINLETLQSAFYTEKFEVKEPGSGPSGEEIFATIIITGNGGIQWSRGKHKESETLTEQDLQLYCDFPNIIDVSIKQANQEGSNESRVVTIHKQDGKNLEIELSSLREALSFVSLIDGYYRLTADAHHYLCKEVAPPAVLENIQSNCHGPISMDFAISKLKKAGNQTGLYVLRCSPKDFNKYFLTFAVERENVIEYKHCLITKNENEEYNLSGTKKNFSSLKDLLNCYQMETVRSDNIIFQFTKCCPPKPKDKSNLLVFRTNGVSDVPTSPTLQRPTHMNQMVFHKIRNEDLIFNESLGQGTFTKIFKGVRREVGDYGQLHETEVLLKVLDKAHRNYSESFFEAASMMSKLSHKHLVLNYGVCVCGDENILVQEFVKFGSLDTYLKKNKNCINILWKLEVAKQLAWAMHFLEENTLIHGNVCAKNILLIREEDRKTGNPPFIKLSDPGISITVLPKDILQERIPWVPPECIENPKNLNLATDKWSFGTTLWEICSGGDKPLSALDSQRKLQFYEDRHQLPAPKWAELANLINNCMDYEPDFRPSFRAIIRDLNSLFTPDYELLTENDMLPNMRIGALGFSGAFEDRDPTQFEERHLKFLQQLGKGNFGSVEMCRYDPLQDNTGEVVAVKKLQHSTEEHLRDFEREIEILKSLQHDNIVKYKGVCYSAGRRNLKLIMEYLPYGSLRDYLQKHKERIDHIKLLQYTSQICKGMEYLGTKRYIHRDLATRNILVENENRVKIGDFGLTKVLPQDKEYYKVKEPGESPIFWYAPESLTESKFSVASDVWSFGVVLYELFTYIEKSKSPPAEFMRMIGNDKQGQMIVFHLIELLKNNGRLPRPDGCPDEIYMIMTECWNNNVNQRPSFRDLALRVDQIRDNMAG

For the compound `CN(C)c1ccc(-c2cc(C(N)=O)c3[nH]c4cc(N5CCOCC5)ccc4c3n2)cn1` [Example 503, 2-(6-(dimethylamino)pyridin-3-yl)-7-morpholino-5H-pyrido[3,2-b]indole-4-carboxamide], the IC50 was found to be 1 nM.
Next, `COc1ccc(-c2nc(C(N)=O)c3[nH]c4cc(OC)ccc4c3n2)cc1` [Example 210, 7-Methoxy-2-(4-methoxyphenyl)-5H-pyrimido[5,4-b]indole-4-carboxamide]: 170 nM; `NC(=O)c1cc(-c2cccc(Cl)c2)cc2c1[nH]c1ccc(C(=O)N3CCOC(CO)C3)cc12` (centres unmarked) [Example 185, 3-(3-chlorophenyl)-6-(2-(hydroxymethyl)morpholine-4-carbonyl)-9H-carbazole-1-carboxamide]: 1 nM.
Then `COc1ccc(-c2cc(C(N)=O)c3[nH]c4cc(N5CCN(C)CC5)ccc4c3n2)cc1F` [Example 310, 2-(3-fluoro-4-methoxyphenyl)-7-(4-methylpiperazin-1-yl)-5H-pyrido[3,2-b]indole-4-carboxamide], with 1 nM; and `NC(=O)c1cc(-c2ccc(Cl)c(Cl)c2)cc2c1[nH]c1ccc(C(=O)N[C@@H]3CCNC3)cc12` [Example 49, 3-(3,4-dichlorophenyl)-N^6-((3R)-3-pyrrolidinyl)-9H-carbazole-1,6-dicarboxamide], with 6 nM.
Then `CC(C)Oc1ccc2[nH]c3c(C(N)=O)cc(-c4ccc(Cl)c(Cl)c4)cc3c2c1` [Example 140, 3-(3,4-Dichlorophenyl)-6-isopropoxy-9H-carbazole-1-carboxamide], with 150 nM; and `NC(=O)c1cc(-c2ccc(N3CCOCC3)nc2)nc2c1[nH]c1cc(N3CCOCC3)ccc12` [Example 504, 7-morpholino-2-(6-morpholinopyridin-3-yl)-5H-pyrido[3,2-b]indole-4-carboxamide], with 1 nM; and `Cc1noc(C)c1-c1cc(C(N)=O)c2[nH]c3cc(C(=O)N4CCOCC4)ccc3c2n1` [Example 461, 2-(3,5-dimethylisoxazol-4-yl)-7-(morpholine-4-carbonyl)-5H-pyrido[3,2-b]indole-4-carboxamide], with 146 nM.
Take `NC(=O)c1cc(-c2ccc(OC(F)(F)F)cc2)cc2c1[nH]c1cc(C(=O)N3CCOCC3)ccc12` [Example 151, 7-(4-morpholinylcarbonyl)-3-(4-(trifluoromethoxy)phenyl)-9H-carbazole-1-carboxamide]: the half-maximal inhibitory concentration (IC50) turned out to be 6 nM.
Next, `COc1ccc(-c2cc(C(N)=O)c3[nH]c4ccc(C(=O)N5CCC(O)CC5)cc4c3c2)cc1F` [Example 197, 3-(3-fluoro-4-methoxyphenyl)-6-(4-hydroxypiperidine-1-carbonyl)-9H-carbazole-1-carboxamide]: 1 nM.
Next, `NC(=O)c1cc(-c2ccc(OC3CCNCC3)c(Cl)c2)nc2c1[nH]c1cc(N3CCOCC3)ccc12` [Example 360, 2-(3-chloro-4-(piperidin-4-yloxy)phenyl)-7-morpholino-5H-pyrido[3,2-b]indole-4-carboxamide]: 7 nM.
Take `NC(=O)c1cc(-c2ccc(CN3CCOCC3)s2)nc2c1[nH]c1cc(N3CCOCC3)ccc12` [Example 345, 7-morpholino-2-(5-(morpholinomethyl)thiophen-2-yl)-5H-pyrido[3,2-b] indole-4-carboxamide]: the IC50 came to 1 nM.
Next, `NC(=O)c1cc(-c2cccc(C(F)(F)F)c2)nc2c1[nH]c1cc(N3CCNCC3)ccc12` [Example 316, 7-(Piperazin-1-yl)-2-(3-(trifluoromethyl)phenyl)-5H-pyrido[3,2-b]indole-4-carboxamide]: 6 nM.
Next, `NC(=O)c1cc(-c2ccc(Cl)c(Cl)c2)cc2c1[nH]c1ccc(C(=O)N3CCOC(CO)C3)cc12` (centres unmarked) [Example 180, 3-(3,4-dichlorophenyl)-6-(2-(hydroxymethyl)morpholine-4-carbonyl)-9H-carbazole-1-carboxamide]: 2 nM; `NC(=O)c1cc(-c2ccc(CO)nc2)nc2c1[nH]c1cc(N3CCOCC3)ccc12` [Example 500, 2-(6-(hydroxymethyl)pyridin-3-yl)-7-morpholino-5H-pyrido[3,2-b]indole-4-carboxamide]: 6 nM.
Then `NC(=O)c1cc(-c2ccc(C3CC3)nc2)nc2c1[nH]c1cc(N3CCOCC3)ccc12` [Example 499, 2-(6-cyclopropylpyridin-3-yl)-7-morpholino-5H-pyrido[3,2-b]indole-4-carboxamide], with 1 nM.
On to `NC(=O)c1cc(-c2ccc3scnc3c2)nc2c1[nH]c1cc(C(=O)N3CCOCC3)ccc12` [Example 456, 2-(benzo[d]thiazol-5-yl)-7-(morpholine-4-carbonyl)-5H-pyrido[3,2-b]indole-4-carboxamide], for which the half-inhibitory concentration (IC50) was 1 nM.
Then `CN1CCN(C(=O)c2ccc3c(c2)[nH]c2c(C(N)=O)cc(-c4ccc(Cl)nc4)cc23)CC1` [Example 76, 3-(6-chloro-3-pyridinyl)-7-((4-methyl-1-piperazinyl)carbonyl)-9H-carbazole-1-carboxamide], with 7 nM; and `CC(C)(C)N1CCN(Cc2ccc3c(c2)[nH]c2c(C(N)=O)cc(-c4cccc(Cl)c4)nc23)CC1` [Example 256, 7((4-tert-Butyl-1-piperazinyl)methyl)-2-(3-chlorophenyl)-5H-pyrido[3,2-b]indole-4-carboxamide], with 1 nM.
Then `NC(=O)c1cc(-c2ccc(CN3CCOCC3)c(Cl)c2)cc2c1[nH]c1cc(-c3ccc(N4CCOCC4)nc3)ccc12` [Example 482, 3-(3-Chloro-4-(morpholinomethyl)phenyl)-7-(6-morpholinopyridin-3-yl)-9H-carbazole-1-carboxamide], with 917 nM; and `Cn1ncc2ccc(-c3cc(C(N)=O)c4[nH]c5cc(C(=O)N6CCOCC6)ccc5c4n3)cc21` [Example 454, 2-(1-methyl-1H-indazol-6-yl)-7-(morpholine-4-carbonyl)-5H-pyrido[3,2-b]indole-4-carboxamide], with 7 nM; and `NC(=O)c1cc(-c2ccc(CN3CCOCC3)cc2)nc2c1[nH]c1cc(N3CCS(=O)(=O)CC3)ccc12` [Example 323, 7-(1,1-Dioxido-4-thiomorpholinyl)-2-(4-(4-morpholinylmethyl)phenyl)-5H-pyrido[3,2-b]indole-4-carboxamide], with 1 nM.
For `COc1cccc(-c2cc(C(N)=O)c3[nH]c4cc(NC(=O)OCCN)ccc4c3c2)c1` [Example 132, 2-aminoethyl (8-carbamoyl-6-(3-methoxyphenyl)-9H-carbazol-2-yl)carbamate], the concentration for half-maximal inhibition (IC50) was found to be 7 nM.
Then `COc1cccc(-c2cc(C(N)=O)c3[nH]c4cccnc4c3c2)c1` [Example 204, 8-(3-Methoxyphenyl)-5H-pyrido[3,2-b]indole-6-carboxamide, HCl], with 29 nM.
Then `COC(=O)c1ccc2c(c1)[nH]c1c(C(N)=O)cc(-c3cccc(OC)c3)cc12` [Example 142, Methyl 8-carbamoyl-6-(3-methoxyphenyl)-9H-carbazole-2-carboxylate], with 310 nM; and `NC(=O)c1cc(-c2ccc(Cl)c(Cl)c2)cc2c1[nH]c1ccc(C(=O)NCCN3CCOCC3)cc12` [Example 51, 3-(3,4-dichlorophenyl)-N^6-(2-(4-morpholinyl)ethyl)-9H-carbazole-1,6-dicarboxamide], with 6 nM; and `COCCCN1CCN(C(=O)c2ccc3c(c2)[nH]c2c(C(N)=O)cc(-c4cccc(OC)c4)cc23)CC1` [Example 106, 3-(3-methoxyphenyl)-7-((4-(3-methoxypropyl)-1-piperazinyl)carbonyl)-9H-carbazole-1-carboxamide], with under 1 nM.
Take `CN1CCN(c2ccc(-c3cc(C(N)=O)c4[nH]c5cc(C(=O)N6CCOCC6)ccc5c4n3)cc2)CC1` [Example 468, 2-(4-(4-methylpiperazin-1-yl)phenyl)-7-(morpholine-4-carbonyl)-5H-pyrido[3,2-b]indole-4-carboxamide]: the half-maximal inhibitory concentration (IC50) came to 6 nM.
Then `COC(=O)c1cccc2[nH]c3c(C(N)=O)cc(-c4cccc(OC)c4)cc3c12` [Example 143, Methyl 8-carbamoyl-6-(3-methoxyphenyl)-9H-carbazole-4-carboxylate], with 110 nM; and `CN1CCN(C(=O)c2ccc3c(c2)[nH]c2c(C(N)=O)cc(-c4ccc(Cl)c(Cl)c4)cc23)CC1` [Example 61, 3-(3,4-dichlorophenyl)-7-((4-methyl-1-piperazinyl)carbonyl)-9H-carbazole-1-carboxamide], with 6 nM; and `COCCN1CCN(Cc2ccc(-c3cc(C(N)=O)c4[nH]c5cc(N6CCOCC6)ccc5c4n3)s2)CC1` [Example 373, 2-(5-((4-(2-methoxyethyl)piperazin-1-yl)methyl)thiophen-2-yl)-7-morpholino-5H-pyrido[3,2-b]indole-4-carboxamide], with 6 nM.
Next, `COc1ccc(-c2cc(C(N)=O)c3[nH]c4ccc(C(=O)N5C[C@@H]6C[C@H]5CO6)cc4c3c2)cc1F` [Example 196, 6-((1S,4S)-2-oxa-5-azabicyclo[2.2.1]heptane-5-carbonyl)-3-(3-fluoro-4-methoxyphenyl)-9H-carbazole-1-carboxamide]: 1 nM; `CN(C)C(=O)c1ccc(-c2cc(C(N)=O)c3[nH]c4cc(C(=O)N5CCOCC5)ccc4c3c2)cc1` [Example 558, 3-(4-(dimethylcarbamoyl)phenyl)-7-(4-morpholinylcarbonyl)-9H-carbazole-1-carboxamide]: 286 nM.
On to `NC(=O)c1cc(-c2ncccn2)cc2c1[nH]c1cc(C(=O)N3CCOCC3)ccc12` [Example 430, 7-(Morpholine-4-carbonyl)-3-(pyrimidin-2-yl)-9H-carbazole-1-carboxamide], for which the IC50 worked out at 1 nM.
For the compound `Cc1ccc(-c2cc(C(N)=O)c3[nH]c4ccc(C(=O)O)cc4c3c2)c(F)c1` [Example 424, 8-Carbamoyl-6-(2-fluoro-4-methylphenyl)-9H-carbazole-3-carboxylic acid], the half-maximal inhibitory concentration (IC50) was 1 nM.
